Results from ChEMBL document CHEMBL1201862, “PubChem BioAssay data set” (2004).
Blank lines part the entries; values can stand above or below the molecule they belong to. Activity calls are given as the source filed them.

How the values were obtained:
[1] = NIH-3T3 fibroblast cytotoxicity, dose response, cytotoxicity control, cell-based, fluorescence, Alamar Blue, secondary assay (AID 2327); type: functional;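 also: NIH-3T3 mouse fibroblasts cultured with fluconazole at 8 µg/mL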
[2] = target: T1, Serine/threonine-protein phosphatase (Candida dubliniensis (strain CD36 / CBS 7987 / NCPF 3949 / NRRLY-17841) (Yeast), UniProt B9W6M3); experiment: blockers of CaCl2-induced CDRE-lacZ signaling – S. cerevisiae, luminescence, secondary, dose response (AID 2388); type: functional, cell-based;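 also: yeast reporter cells carrying a calcineurin-responsive lacZ construct stimulated with calcium chloride; luminescent beta-galactosidase reporter signal in whole cells rather than isolated phosphatase activity; potency for inhibition where a drop in reporter signal means calcineurin blockade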
T1 sequence (B9W6M3 whole entry): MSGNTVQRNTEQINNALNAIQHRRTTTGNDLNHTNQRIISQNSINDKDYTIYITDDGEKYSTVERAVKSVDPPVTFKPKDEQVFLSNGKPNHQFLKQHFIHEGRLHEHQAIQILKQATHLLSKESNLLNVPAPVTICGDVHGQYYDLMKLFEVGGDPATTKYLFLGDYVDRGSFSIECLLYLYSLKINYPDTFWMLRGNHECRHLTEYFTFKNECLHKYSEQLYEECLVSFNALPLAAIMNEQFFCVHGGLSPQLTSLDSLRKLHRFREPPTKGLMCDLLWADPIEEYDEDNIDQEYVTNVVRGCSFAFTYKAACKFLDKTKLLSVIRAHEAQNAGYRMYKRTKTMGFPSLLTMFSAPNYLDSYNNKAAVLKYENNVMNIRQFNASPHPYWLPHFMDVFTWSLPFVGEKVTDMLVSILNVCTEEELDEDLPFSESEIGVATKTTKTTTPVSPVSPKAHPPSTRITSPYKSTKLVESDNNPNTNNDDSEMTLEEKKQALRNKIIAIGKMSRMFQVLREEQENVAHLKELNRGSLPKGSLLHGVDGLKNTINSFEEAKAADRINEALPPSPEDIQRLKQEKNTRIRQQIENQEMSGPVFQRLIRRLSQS

[3] = fluconazole-exposed Candida albicans growth modulators – fluorescence, retest, confirmation (AID 2467); type: functional, cell-based
Aminopeptidase N = Aminopeptidase N (Plasmodium falciparum FcB1/Columbia, UniProt O96935); experiment: malaria alanyl aminopeptidase activity blockers – biochemical, fluorogenic H-Leu-NHMec substrate, 1536-well (AID 1445); design: species or system Plasmodium falciparum 3D7, 3D7
[4] = target: ATP-dependent molecular chaperone HSP82 (Candida albicans (strain WO-1) (Yeast), UniProt C4YTQ8); experiment: steroid-induced GRE reporter decrease in yeast – S. cerevisiae, luminescence, Hsp90 inhibitor project, dose response (AID 2400); type: functional, cell-based;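 also: beta-galactosidase luminescence from glucocorticoid response element reporter as proxy for Hsp90 function; inhibitor potency where signal loss means Hsp90 inhibition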
Sequence of ATP-dependent molecular chaperone HSP82 (C4YTQ8 whole entry): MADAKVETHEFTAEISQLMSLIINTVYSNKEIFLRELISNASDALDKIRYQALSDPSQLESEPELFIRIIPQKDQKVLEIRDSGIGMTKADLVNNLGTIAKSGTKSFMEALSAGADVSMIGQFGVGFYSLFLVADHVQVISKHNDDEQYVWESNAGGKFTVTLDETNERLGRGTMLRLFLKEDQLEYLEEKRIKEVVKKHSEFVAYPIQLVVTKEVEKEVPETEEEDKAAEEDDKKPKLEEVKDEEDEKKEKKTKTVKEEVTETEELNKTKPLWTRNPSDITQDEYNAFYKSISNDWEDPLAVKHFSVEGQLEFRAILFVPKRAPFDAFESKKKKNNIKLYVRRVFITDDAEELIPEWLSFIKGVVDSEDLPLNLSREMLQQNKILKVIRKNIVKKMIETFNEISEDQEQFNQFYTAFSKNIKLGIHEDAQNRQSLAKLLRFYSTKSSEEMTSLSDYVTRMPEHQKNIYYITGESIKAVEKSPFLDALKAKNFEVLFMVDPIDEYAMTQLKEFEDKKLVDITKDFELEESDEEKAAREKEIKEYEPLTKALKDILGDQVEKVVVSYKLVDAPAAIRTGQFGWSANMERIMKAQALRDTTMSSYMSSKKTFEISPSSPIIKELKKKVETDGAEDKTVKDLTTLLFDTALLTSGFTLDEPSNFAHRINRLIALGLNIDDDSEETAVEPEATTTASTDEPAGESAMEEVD

Procathepsin L = Procathepsin L (Homo sapiens, UniProt P07711)
Sequence of Procathepsin L (P07711 whole entry): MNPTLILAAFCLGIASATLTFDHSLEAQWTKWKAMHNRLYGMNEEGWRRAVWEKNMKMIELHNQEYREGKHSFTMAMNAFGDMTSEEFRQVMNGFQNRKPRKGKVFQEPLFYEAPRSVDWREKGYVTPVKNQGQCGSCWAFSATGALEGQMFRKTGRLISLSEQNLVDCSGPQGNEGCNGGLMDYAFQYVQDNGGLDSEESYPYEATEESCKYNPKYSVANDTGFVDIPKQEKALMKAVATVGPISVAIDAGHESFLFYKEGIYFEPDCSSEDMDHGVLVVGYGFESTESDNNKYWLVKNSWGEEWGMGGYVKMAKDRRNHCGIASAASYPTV

Aspartyl aminopeptidase = Aspartyl aminopeptidase (Plasmodium falciparum 3D7, UniProt Q8I2J3)
Sequence of Aspartyl aminopeptidase (Q8I2J3 whole entry): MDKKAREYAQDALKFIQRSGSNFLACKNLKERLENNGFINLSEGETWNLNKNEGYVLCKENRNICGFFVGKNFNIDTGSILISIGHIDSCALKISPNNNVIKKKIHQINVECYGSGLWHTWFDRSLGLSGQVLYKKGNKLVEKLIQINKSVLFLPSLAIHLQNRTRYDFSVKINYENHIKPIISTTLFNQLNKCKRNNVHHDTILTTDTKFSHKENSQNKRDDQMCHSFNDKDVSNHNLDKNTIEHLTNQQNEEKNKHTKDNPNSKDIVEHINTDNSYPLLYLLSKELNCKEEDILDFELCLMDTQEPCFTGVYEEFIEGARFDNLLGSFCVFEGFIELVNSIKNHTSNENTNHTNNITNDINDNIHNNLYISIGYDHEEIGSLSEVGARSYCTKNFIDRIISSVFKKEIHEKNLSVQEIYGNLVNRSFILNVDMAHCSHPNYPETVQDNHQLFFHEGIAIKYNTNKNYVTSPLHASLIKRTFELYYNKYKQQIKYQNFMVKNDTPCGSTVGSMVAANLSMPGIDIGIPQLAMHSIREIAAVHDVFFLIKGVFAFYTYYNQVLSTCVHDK

Cytochrome P450 2C9 = Cytochrome P450 2C9 (Homo sapiens, UniProt P11712); conditions: Potency
Sequence of Cytochrome P450 2C9 (P11712 whole entry): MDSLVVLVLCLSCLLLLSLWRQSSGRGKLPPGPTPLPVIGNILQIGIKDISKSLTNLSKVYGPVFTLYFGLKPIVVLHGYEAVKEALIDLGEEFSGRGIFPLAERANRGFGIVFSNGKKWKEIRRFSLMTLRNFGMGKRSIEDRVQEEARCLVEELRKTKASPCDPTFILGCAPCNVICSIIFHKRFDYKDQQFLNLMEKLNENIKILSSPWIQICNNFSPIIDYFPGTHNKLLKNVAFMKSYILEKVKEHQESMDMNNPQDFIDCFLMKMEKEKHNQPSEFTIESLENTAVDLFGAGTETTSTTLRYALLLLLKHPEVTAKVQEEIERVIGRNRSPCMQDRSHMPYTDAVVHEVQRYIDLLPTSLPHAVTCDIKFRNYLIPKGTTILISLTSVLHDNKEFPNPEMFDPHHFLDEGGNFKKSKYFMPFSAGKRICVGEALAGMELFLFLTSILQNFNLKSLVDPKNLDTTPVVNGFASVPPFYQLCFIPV

Cytochrome P450 3A4 = Cytochrome P450 3A4 (Homo sapiens, UniProt P08684); conditions: Potency;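 also: confirmatory qHTS run detecting inhibitors and substrates of CYP3A4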
Sequence of Cytochrome P450 3A4 (P08684 whole entry): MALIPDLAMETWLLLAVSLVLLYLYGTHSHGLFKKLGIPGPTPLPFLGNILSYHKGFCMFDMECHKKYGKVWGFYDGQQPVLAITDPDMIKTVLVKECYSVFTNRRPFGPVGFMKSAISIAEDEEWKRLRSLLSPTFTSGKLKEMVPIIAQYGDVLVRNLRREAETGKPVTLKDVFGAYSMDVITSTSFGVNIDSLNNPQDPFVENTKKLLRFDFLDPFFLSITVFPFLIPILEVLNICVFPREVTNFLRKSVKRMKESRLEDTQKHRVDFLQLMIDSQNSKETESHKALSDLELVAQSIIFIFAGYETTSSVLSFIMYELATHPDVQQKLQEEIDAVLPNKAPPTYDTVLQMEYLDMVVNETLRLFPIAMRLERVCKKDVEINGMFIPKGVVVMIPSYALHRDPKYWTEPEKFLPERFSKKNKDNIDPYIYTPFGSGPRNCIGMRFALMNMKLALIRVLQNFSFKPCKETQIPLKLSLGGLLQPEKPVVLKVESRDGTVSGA

Cytochrome P450 2D6 = Cytochrome P450 2D6 (Homo sapiens, UniProt P10635); experiment: qHTS Assay for Inhibitors and Substrates of Cytochrome P450 2D6. [Related pubchem assays: 410 ]; type: ADME; conditions: read-out: Potency
Sequence of Cytochrome P450 2D6 (P10635 whole entry): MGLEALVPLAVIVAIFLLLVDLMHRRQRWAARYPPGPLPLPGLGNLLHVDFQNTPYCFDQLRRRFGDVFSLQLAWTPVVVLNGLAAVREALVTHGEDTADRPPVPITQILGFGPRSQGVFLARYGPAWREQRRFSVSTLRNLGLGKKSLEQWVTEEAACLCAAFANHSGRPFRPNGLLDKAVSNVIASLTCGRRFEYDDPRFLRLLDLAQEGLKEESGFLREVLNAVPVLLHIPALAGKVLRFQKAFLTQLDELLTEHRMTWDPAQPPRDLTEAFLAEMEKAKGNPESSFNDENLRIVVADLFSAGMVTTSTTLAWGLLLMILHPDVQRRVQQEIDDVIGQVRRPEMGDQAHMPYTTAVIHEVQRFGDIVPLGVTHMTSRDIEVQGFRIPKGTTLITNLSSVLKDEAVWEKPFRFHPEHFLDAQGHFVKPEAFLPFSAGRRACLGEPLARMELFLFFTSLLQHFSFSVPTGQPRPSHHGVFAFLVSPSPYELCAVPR

[5] = target: Lysosomal acid glucosylceramidase (Homo sapiens, UniProt P04062); experiment: Dose response cell-based high throughput screening assay to identify enhancers of beta-glucosidase activity. [Related pubchem assays: 784 ]; type: functional
Sequence of Lysosomal acid glucosylceramidase (P04062 whole entry): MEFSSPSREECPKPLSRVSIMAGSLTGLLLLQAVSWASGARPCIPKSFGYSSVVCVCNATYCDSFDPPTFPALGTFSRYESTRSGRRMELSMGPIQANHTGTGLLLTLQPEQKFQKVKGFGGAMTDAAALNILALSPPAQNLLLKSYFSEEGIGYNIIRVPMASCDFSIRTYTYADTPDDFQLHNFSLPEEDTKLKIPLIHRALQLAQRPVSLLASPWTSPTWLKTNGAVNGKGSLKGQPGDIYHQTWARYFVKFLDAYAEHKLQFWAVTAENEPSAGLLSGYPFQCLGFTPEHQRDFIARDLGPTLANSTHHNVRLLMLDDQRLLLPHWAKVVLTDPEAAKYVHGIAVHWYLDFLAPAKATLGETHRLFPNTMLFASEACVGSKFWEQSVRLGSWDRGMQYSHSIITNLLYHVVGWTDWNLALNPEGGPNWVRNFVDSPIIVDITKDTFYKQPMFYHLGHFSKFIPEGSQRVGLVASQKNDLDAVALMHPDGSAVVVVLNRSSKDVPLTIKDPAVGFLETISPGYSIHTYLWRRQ

[6] = viability of HCT116 lacking mutant beta-catenin – cell-based, human colon tumor, dose response (AID 1045); type: functional;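 also: HCT116 colon tumor cells with beta catenin knocked out; cells exposed to compound for 60 hours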
[7] = Trypanosoma cruzi growth suppression in host cells – NIH3T3 host cells, beta-gal luminescence, confirmation (AID 2044); type: functional, cell-based;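 also: intracellular parasites grown in NIH/3T3 mouse fibroblasts as host cells; luminescent beta-galactosidase reporter signal from transgenic T. cruzi replicating inside host cells; inhibitors lower the luminescence signal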
[8] = NIH3T3 cell viability loss – ATP luminescence, mouse fibroblasts, counter-screen, dose response (AID 2010); type: functional, cell-based;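 also: cells exposed to compound for about 90 hours before reading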
[9] = target: Sphingosine 1-phosphate receptor 1 (Homo sapiens, UniProt P21453); type: functional;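 also: Tango beta-arrestin reporter U2OS cells stimulated with S1P near its EC80; inhibitor potency meaning antagonism of receptor activation by the natural agonist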
Sequence of Sphingosine 1-phosphate receptor 1 (P21453 whole entry): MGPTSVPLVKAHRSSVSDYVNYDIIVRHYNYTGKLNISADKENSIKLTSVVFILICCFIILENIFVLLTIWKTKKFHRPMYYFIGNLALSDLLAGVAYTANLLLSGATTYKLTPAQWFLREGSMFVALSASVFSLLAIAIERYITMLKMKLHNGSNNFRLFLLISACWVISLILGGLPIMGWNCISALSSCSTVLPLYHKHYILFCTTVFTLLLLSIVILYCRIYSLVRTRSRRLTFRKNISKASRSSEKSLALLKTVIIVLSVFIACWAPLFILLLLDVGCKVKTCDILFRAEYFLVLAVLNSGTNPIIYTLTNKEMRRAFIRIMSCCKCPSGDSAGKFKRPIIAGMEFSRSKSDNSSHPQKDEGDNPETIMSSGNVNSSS

[10] = target: G-protein coupled receptor 35 (Homo sapiens, UniProt Q9HC97); experiment: inhibition of zaprinast-stimulated GPR35 beta-arrestin translocation – imaging, U2OS, beta-arrestin-GFP, zaprinast agonist, primary screen (AID 2058); type: functional;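 also: antagonist potency meaning inhibition of agonist-induced arrestin redistribution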
Sequence of G-protein coupled receptor 35 (Q9HC97 whole entry): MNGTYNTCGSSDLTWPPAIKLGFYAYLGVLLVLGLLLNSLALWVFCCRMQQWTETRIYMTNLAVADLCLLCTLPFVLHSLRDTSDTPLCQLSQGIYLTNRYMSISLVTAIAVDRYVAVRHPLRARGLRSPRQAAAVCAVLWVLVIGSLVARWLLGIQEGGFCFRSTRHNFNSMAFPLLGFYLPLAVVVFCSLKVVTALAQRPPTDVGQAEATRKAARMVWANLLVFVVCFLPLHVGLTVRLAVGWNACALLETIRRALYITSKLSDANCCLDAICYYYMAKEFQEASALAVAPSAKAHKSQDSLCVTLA

[11] = target: T2, Sphingosine 1-phosphate receptor 4 (Homo sapiens, UniProt O95977); experiment: Fluorescence dose response cell-based high throughput screening assay for antagonists of the Sphingosine 1-Phosphate Receptor 4 (S1P4). [Related pubchem assays: 1524 (Confirmation in triplicates.), 1510 (Primary screen.)]; type: functional
T2 sequence (O95977 whole entry): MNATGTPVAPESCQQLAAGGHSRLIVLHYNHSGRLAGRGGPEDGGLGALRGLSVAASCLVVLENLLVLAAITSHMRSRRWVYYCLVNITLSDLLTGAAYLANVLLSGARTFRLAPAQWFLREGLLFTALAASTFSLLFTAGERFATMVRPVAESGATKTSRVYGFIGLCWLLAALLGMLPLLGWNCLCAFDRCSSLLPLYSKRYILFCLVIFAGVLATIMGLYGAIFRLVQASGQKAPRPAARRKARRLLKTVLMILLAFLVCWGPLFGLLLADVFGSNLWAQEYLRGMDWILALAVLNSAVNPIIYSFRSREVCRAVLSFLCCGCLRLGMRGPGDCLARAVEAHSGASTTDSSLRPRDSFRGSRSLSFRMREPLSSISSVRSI

[12] = viability of PTEN-deleted HCT116 cells – cell-based, HCT116 PTEN knockout, dose response (AID 1047); type: functional;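 also: HCT116 colon tumor cells with PTEN knocked out; cells exposed to compound for 60 hours before readout; potency for loss of cell viability measured by luminescence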
[13] = target: T3, Alkaline phosphatase, tissue-nonspecific isozyme (Homo sapiens, UniProt P05186)
T3 sequence (P05186 whole entry): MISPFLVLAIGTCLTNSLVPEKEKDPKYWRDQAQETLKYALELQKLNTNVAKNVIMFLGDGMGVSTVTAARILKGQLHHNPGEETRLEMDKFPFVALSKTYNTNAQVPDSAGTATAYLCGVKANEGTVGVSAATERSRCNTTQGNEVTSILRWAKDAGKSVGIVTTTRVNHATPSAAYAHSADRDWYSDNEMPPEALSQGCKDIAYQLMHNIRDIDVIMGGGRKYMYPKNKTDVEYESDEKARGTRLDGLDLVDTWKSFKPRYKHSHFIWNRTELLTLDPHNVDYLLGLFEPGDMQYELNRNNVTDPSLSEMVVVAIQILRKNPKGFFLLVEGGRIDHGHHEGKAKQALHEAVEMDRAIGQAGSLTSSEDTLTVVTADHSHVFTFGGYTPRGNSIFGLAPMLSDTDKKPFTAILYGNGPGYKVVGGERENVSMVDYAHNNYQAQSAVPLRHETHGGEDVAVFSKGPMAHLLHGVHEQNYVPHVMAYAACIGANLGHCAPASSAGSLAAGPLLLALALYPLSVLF

SMILES: CCn1c(O)c(N=NC(=O)c2cccs2)c2ccccc21
- EC50 [1]: 43.6 µM (active)
- EC50 [2]: > 180 µM (inactive)
- EC50 [3]: 1.09 µM (active)
- IC50 (Aminopeptidase N): 70.2 µM (active)
- EC50 [4]: 31.2 µM (active)

SMILES: O=c1[nH]c(CSc2nnc[nH]2)nc2ccccc12
- IC50 (Procathepsin L): > 59.6 µM (not active)
- IC50 (Aspartyl aminopeptidase): 0.833 µM (active)

SMILES: COc1cc(/C=C(/C)[N+](=O)[O-])ccc1OCc1ccccc1Cl
- EC50 [6]: 8.05 µM (active)
- EC50 [7]: 2.07 µM (active)
- EC50 [8]: 9.08 µM (active)
- IC50 [9]: 7.64 µM (active)
- IC50 [10]: 2.45 µM (active)
- IC50 [11]: 0.727 µM (active)
- EC50 [12]: 8.96 µM (active)

SMILES: COc1ccc(S(=O)(=O)C(C#N)c2nc3ccccc3nc2N2CCCCC2)cc1 (centres undefined)
- EC50 [5]: > 50 µM (not active)

The next lines start with the values.

- AC50 (Cytochrome P450 2C9): 3.16 µM (inconclusive)
- AC50 (Cytochrome P450 3A4): 3.98 µM (inconclusive)
- AC50 (Cytochrome P450 2D6): 3.16 µM (inconclusive)
SMILES: CC1CCC2C(=O)OC(CN3C(=O)c4ccccc4C3=O)CN2C1c1ccc(Br)cc1 (centres undefined)

- IC50 (Procathepsin L): > 59.6 µM (not active)
- IC50 (Aspartyl aminopeptidase): 0.351 µM (active)
SMILES: COC(=O)CN(n1cnnc1)S(=O)(=O)c1ccc(C)cc1

- EC50 [5]: > 50 µM (not active)
SMILES: CCCCOc1nc2ccccc2nc1C(C#N)S(=O)(=O)c1ccccc1 (centres undefined)

- AC50 (Cytochrome P450 2C9): 2.51 µM (inconclusive)
- AC50 (Cytochrome P450 3A4): 3.98 µM (inconclusive)
SMILES: CCOC(=O)OCC1OC(C#Cc2ccc(Br)cc2)C=CC1OC(=O)OCC (centres undefined)

- EC50 [13]: > 100 µM (not active)
SMILES: CCCCN1CC(=O)C(c2nc3ccccc3[nH]2)=C1N
